The source of these data is patent publication US12528822B2, “Cycloalkane-1,3-diamine derivative” (Daiichi Sankyo Company, Limited, priority 2018, dated 2026).

Experiment [1] deals with MLL-AF9-overexpressing AML-like cells (MA9 cells). Kind of experiment: Differentiation-inducing activity in MLL-AF9-overexpressing AML-like cells (flow cytometry of Gr-1 and cKit). The note with it: 7 days, 5 or 20 nM (Ex. 25, 27), 150 or 300 nM (Ex. 26), 50 or 100 nM (Ex. 22), compared with the control group (DMSO); for rate of the myeloid cell differentiation antigen Gr-1-expressing cells in living cells: FIG. 10; for rate of the cKit-expressing cells in living cells: FIG. 11. In kind it is cell-based, mouse. On the procedure: The human MLL-AF9 fusion gene was introduced into cKit-positive mononuclear cells isolated from the myeloid of C57BL6 mouse, by retrovirus infection. MLL-AF9-overexpressing AML-like cells (MA9 cells) that acquired abnormal growth ability were established by liquid-culturing the cells after virus infection for a long period of time. Serum-free medium (GlutaMax, P/S, Stem Pro-34 medium containing 10 ng/ml mIL-3, 50 ng/mL mSCF and 10 ng/mL human Oncostatin M) was used as a culture medium.
(2 μL/well) (day 0). After culturing for 7 days (day 7), the cells were collected, and blocked with 5% FBS/PBS containing 10% Mouse BD Fc Block (BD) for 10 minutes at room temperature, and then any of various antibodies (Gr-1-FITC or CD117 (cKit)-APC: Biolegend) was added thereto at a final concentration of 0.4 μg/sample, and the mixture was reacted on ice for 30 minutes. Then, dead cell staining dye DAPI (0.2 mg/mL) was added thereto at so as to be 1 μL/sample, and the reaction was carried out on ice for additional 2 minutes under shading. Then, the expression level of each surface antigen of the cells was measured by NovoCyte flow cytometer (LMS). The obtained data were analyzed by FlowJo software (Becton Dickinson), and the rate of each surface antigen-expressing cells in the living cells excluding dead cells was graphed.

For another experiment, the system named is K562 cells. Kind of experiment: Cell growth inhibitory activity, K562 cells (CellTiter-Glo, 384-well). In kind it is cell-based. The following applies: Homo sapiens.
A further experiment has as its system MV-4-11 cells. Kind of experiment: Cell growth inhibitory activity, MV-4-11 cells (CellTiter-Glo, 384-well). Format: cell-based. The following applies: Homo sapiens. On the technique in general: Cellular ATP, detected with luciferase, serves as a proxy for viable cell number.
The test system of a further experiment is MOLM-13 cells. Put plainly: cells. In kind it is cell-based. The following applies: Homo sapiens.
Experiment [2] concerns the target T1, menin (Flag tagged) and biotinylated MLL1 peptide (1-46aa) (Homo sapiens, UniProt O00255).
T1 sequence (O00255 1-610): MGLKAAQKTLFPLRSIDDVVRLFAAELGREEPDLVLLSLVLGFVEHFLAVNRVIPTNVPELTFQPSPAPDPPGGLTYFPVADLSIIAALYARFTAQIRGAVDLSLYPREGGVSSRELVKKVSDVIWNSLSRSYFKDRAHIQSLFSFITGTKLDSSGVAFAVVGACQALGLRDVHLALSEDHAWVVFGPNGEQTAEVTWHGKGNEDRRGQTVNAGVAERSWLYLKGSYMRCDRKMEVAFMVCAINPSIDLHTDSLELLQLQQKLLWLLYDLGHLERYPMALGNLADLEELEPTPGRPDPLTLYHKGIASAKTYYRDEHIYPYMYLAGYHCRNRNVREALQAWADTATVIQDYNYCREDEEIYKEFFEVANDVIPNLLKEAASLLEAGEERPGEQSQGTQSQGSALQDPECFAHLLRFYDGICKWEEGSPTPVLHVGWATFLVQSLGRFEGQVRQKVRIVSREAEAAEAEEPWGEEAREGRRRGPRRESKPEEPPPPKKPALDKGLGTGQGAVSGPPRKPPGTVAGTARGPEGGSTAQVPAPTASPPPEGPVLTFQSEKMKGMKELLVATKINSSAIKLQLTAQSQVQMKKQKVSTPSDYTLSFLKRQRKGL
Put plainly: biochemical.
Procedure: Then, the fluorescence signal by AlphaLISA (registered trademark, PerkinElmer Co., Ltd.) was measured using a plate reader (PerkinElmer Co., Ltd., EnVisionXcite).

SMILES strings stand for the structures. Structures can show the parent of a compound that is named as a salt. Where two headings read alike, the source gives them in different places.

Procedure for K562 cells: (§1) Each cell was purchased from American Type Culture Collection (ATCC). […] The prepared drug-containing plate was stored at −30° C. until use, and thawed before use.
(§2) The suspension of each cells was prepared with 10% FBS RPMI1640 culture medium so as to be 1000 cells/mL (K562) or 10000 cells/mL (MV-4-11, MOLM-13), and seeded on the drug-containing plate (40 μL/well) (day 0). The cells were cultured for additional 3 or 7 days. ATP measurement reagent (CellTiter-Glo (registered trademark, Promega Corporation) 2.0 Assay, model number G9242, Promega Corporation) was added to each well at 10 μL/well, on the day of the drug addition (day 0) and 3 days (day 3) or 7 days (day 7) after the drug addition. After affixing a black sticker on the bottom surface, the mixture was stirred using a microplate mixing deaeration machine (model name, Weltornado FK-62, Sakaki Dengyo Co., Ltd.) (stirring conditions, revolution 9, rotation 7, time 12).
(§3) The cell growth of the drug-added group from day 0 to day 3 or day 7 was calculated as T/C %, when the cell growth of the drug-free group was considered as 100%.
Procedure for MOLM-13 cells: as §1, §2, §3
Procedure for MV-4-11 cells: as §1, §2, §3

As to `COc1cc(-c2ccc(CN[C@H]3C[C@@H](O)[C@@H](N(C)c4ncnc5sc(CC(F)(F)F)cc45)C3)cc2)cnc1C#N` [Example 22, 5-[4-({[(1R,3R,4S)-3-hydroxy-4-{methyl[6-(2,2,2-trifluoroethyl)thieno[2,3-d]pyrimidin-4-yl]amino}cyclopentyl]amino}methyl)phenyl]-3-methoxypyridine-2-carbonitrile Hydrochloride], in experiment [1], the “rate of the myeloid cell differentiation antigen Gr-1-expressing cells in living cells” value is given as “increased the rate of Gr-1-positive cells” and the “rate of the cKit-expressing cells in living cells” value (from here on “rate of the cKit-expressing cells”) is reported as “reduced the rate of cKit-positive cells”.
In the case of `COc1cc(-c2ccc(CN[C@H]3C[C@@H](O)[C@@H](N(C)c4ncnc5sc(CC(F)(F)F)cc45)C3)cc2)nnc1OC` [Example 25, (1R,2S,4R)-4-({[4-(5,6-dimethoxypyridazin-3-yl)phenyl]methyl}amino)-2-{methyl[6-(2,2,2-trifluoroethyl)thieno[2,3-d]pyrimidin-4-yl]amino}cyclopentan-1-ol Hydrochloride], in experiment [1], the “rate of the myeloid cell differentiation antigen Gr-1-expressing cells in living cells” value is listed as “increased the rate of Gr-1-positive cells” and the “rate of the cKit-expressing cells” value is on record as “reduced the rate of cKit-positive cells”.
`COc1nc(N(C)[C@H]2C[C@@H](NCc3ccc(-c4cc(OC)c(OC)nn4)cc3)C[C@H]2O)c2cc(CC(F)(F)F)sc2n1` [Example 27, (1R,2S,4R)-4-({[4-(5,6-dimethoxypyridazin-3-yl)phenyl]methyl}amino)-2-{[2-methoxy-6-(2,2,2-trifluoroethyl)thieno[2,3-d]pyrimidin-4-yl](methyl)amino}cyclopentan-1-ol Hydrochloride]: in experiment [1], the “rate of the myeloid cell differentiation antigen Gr-1-expressing cells in living cells” value is “increased the rate of Gr-1-positive cells” and the “rate of the cKit-expressing cells” value is “reduced the rate of cKit-positive cells”.
Take `FC(F)(F)Cc1cc2c(N[C@@H]3CCC[C@H](NCc4ccc(NC5CCCCC5)cc4)C3)ncnc2s1` [Example 44, (1S,3R)-N^1-{[4-(cyclohexylamino)phenyl]methyl}-N^3-[6-(2,2,2-trifluoroethyl)thieno[2,3-d]pyrimidin-4-yl]cyclohexane-1,3-diamine hydrochloride]: the GI50 (usually the concentration giving 50% growth inhibition) in the experiment with K562 cells (72 h, K562, Day 3, read-out: GI50 (μM) Day 3 K562) was 2.75 µM; in the experiment with K562 cells (168 h, K562, Day 7, read-out: GI50 (μM) Day 7 K562) it was 1.91 µM; in the experiment on MV-4-11 cells (72 h, MV4;11, Day 3, read-out: GI50 (μM) Day 3 MV4), 1.89 µM; in the experiment with MV-4-11 cells (168 h, MV4;11, Day 7, read-out: GI50 (μM) Day 7 MV4) it was 1.53 µM; in the experiment with MOLM-13 cells (MOLM-13, 72 h, read-out: GI50 (μM) Day 3 MOLM-13) it was 2.73 µM; with MOLM-13 cells (MOLM-13, 168 h, read-out: GI50 (μM) Day 7 MOLM-13) it was 2.93 µM. In addition, it took 335 nM to reach half-maximal inhibition in experiment [2] (IC50).
